Data on five molecules can be found in ChEMBL document CHEMBL2401610, “N-Benzyloxycarbonyl-S-(2,4-dinitrophenyl)glutathione dibutyl diester is inhibitory to melarsoprol resistant cell lines overexpressing the T. bruceiMRPA transporter” (Bioorg Med Chem Lett, 2013).

Experiment [1] concerns Trypanosoma brucei brucei. In words: Resistant factor, ratio of IC50 for bloodstream form of Trypanosoma brucei brucei expressing TbMRPA protein to IC50 for bloodstream form of wild type Trypanosoma brucei 247. In kind it is functional.
The test system of experiment [2] is Trypanosoma brucei brucei. The experiment in a line: Antitrypanosomal activity against bloodstream form of Trypanosoma brucei brucei expressing TbMRPA protein after 3 days by microplate assay. In kind it is functional, organism-based. The settings on record: 72 h.
Experiment [3] deals with Trypanosoma brucei brucei. The experiment in a line: Antitrypanosomal activity against bloodstream form of wild type Trypanosoma brucei brucei 247 after 3 days by microplate assay. The class given is functional, organism-based. As to conditions: Trypanosoma brucei, 247, 72 h.

As usually defined, the IC50 is the concentration that gives 50% inhibition.

With `COC(=O)CNC(=O)[C@H](CSC(=O)c1ccc(Br)cc1)NC(=O)CC[C@H](NC(=O)OCc1ccccc1)C(=O)OC`, in experiment [1], the “Ratio IC50” value turned out to be 16.6. The half-maximal inhibitory concentration (IC50) in experiment [2] came to 58 µM; in experiment [3], 3.5 µM.
As to `Nc1nc(N)nc(Nc2ccc([As]3SCC(CO)S3)cc2)n1` (stereo not drawn) [MELARSOPROL], the “Ratio IC50” value in experiment [1] is listed as 10.
On to `N[C@@H](CCC(=O)N[C@@H](CSC(=O)c1ccc(Br)cc1)C(=O)NCC(=O)O)C(=O)O`, for which the “Ratio IC50” value in experiment [1] worked out at 1.8. For the same molecule, the results for the IC50 in experiment [2] and in experiment [3] were 163 µM and 87.5 µM, respectively.
In the same order, the values of `CCCCOC(=O)CNC(=O)[C@H](CSc1ccc([N+](=O)[O-])cc1[N+](=O)[O-])NC(=O)CC[C@H](NC(=O)OCc1ccccc1)C(=O)OCCCC` are 1.4, 6.5 µM and 4.5 µM.
For `O=C(O)CNC(=O)[C@H](CSC(=O)c1ccc(Br)cc1)NC(=O)CC[C@H](NC(=O)OCc1ccccc1)C(=O)O`, in that order: 182, 785 µM and 4.3 µM.
